In US20030232409A1, “Immortal porcine cells” (Regents of the University of Minnesota, priority 2002, published 2003):

How the values were obtained:
[1] = tested on: PEGE1 cells; assay: Short-circuit current (Isc) of cell monolayers in Ussing chambers, immortalized cells; type: cell-based, porcine; conditions: for Mean 8 cpt cAMP-stimulated Isc / Mean 8 cpt cAMP-stimulated NPPB-sensitive Isc: n=6
Method: (§1) PEGE primary cells, isolated and cultured as previously described (Deachapunya and O'Grady, J. of Physiology, 508 (Part 1), 31-47 (1998)), and PEGE1 cells were used. Transepithelial resistance of cell monolayers was measured using the EVOM epithelial voltohmmeter coupled to Ag/AgCl “chopstick” electrodes (World Precision Instrument, New Haven, Conn.). After 10 days, the confluent culture inserts were mounted in Ussing Chambers, bathed on both sides with standard porcine Ringer solution which was maintained at 37° C., and bubbled with 95% O2 and 5% CO2. Transepithelial potential difference and Isc were measured with the use of voltage-clamp circuitry from JWT Engineering (Overland Park, Kans.). The data from the voltage clamp experiments was digitized, stored and analyzed using Workbench data acquisition software (Kent Scientific Corporation, Litchfield, Conn.) and recorded with a Compaq pentium microcomputer.
(§2) All values are presented as means±SEM. n is the number of monolayers. The differences between control and treatment means were analyzed using a t-test for paired or unpaired means where appropriate. A value of p<0.05 was considered statistically significant.

[2] = tested on: PEGE primary cells; assay: Short-circuit current (Isc) of cell monolayers in Ussing chambers, primary cells; type: cell-based, porcine
Method: as §1, §2

[3] = tested on: PEGE primary cells; conditions: serum-containing conditions, Deachapunya and O'Grady 1998; cited from earlier work

Compound: Nc1ncnc2c1nc(Sc1ccc(Cl)cc1)n2[C@@H]1O[C@@H]2COP(=O)(O)O[C@H]2[C@H]1O [8 cpt cAMP, 8(4-chlorophenylthiol) cAMP]
- Mean 8 cpt cAMP-stimulated Isc ([1]; passage 19, 50 μM 8 cpt cAMP): 33.2 μA
- Mean 8 cpt cAMP-stimulated Isc ([1]; passage 44-51, 50 μM 8 cpt cAMP): 15.6 μA
- Mean 8 cpt cAMP-stimulated Isc ([2]; passage 4, 50 μM 8 cpt cAMP, n=6): 25.9 μA

Compound: O=C(O)c1cc([N+](=O)[O-])ccc1NCCCc1ccccc1 [NPPB, 5-nitro-2-(3phenylpropylamino) benzoic acid]
- Mean PGE2-stimulated NPPB-sensitive Isc ([1]; passage 19, 100 μM NPPB after 3 μM PGE2, n=6): 33.4 μA
- Mean 8 cpt cAMP-stimulated NPPB-sensitive Isc ([1]; passage 19, 100 μM NPPB after 50 μM 8 cpt cAMP): 24.3 μA
- Mean PGE2-stimulated NPPB-sensitive Isc ([1]; passage 44-51, 100 μM NPPB after 3 μM PGE2, n=5): 12.5 μA
- Mean 8 cpt cAMP-stimulated NPPB-sensitive Isc ([1]; passage 44-51, 100 μM NPPB after 50 μM 8 cpt cAMP): 14.5 μA
- Mean PGE2-stimulated NPPB-sensitive Isc ([2]; passage 4, 100 μM NPPB after 3 μM PGE2, n=5): 24.9 μA
- Mean 8 cpt cAMP-stimulated NPPB-sensitive Isc ([2]; passage 4, 100 μM NPPB after 50 μM 8 cpt cAMP, n=6): 17.6 μA
- Effect on PGE2- or cAMP-stimulated increase in Isc [3]: blocked

Compound: CCCCC[C@H](O)/C=C/[C@H]1[C@H](O)CC(=O)[C@@H]1C/C=C\CCCC(=O)O [PGE2]
- Mean PGE2-stimulated Isc ([1]; passage 19, 3 μM PGE2, n=6): 69.0 μA
- Mean PGE2-stimulated Isc ([1]; passage 44-51, 3 μM PGE2, n=5): 35.0 μA
- Mean PGE2-stimulated Isc ([2]; passage 4, 3 μM PGE2, n=5): 40.3 μA
- Effect of stimulation on Isc [3]: increase in Isc

Compound: NC(=NCc1ccccc1)NC(=O)c1nc(Cl)c(N)nc1N [benzamil]
- Mean benzamil-sensitive Isc ([1]; passage 19, 5 μM benzamil, n=15): 1.6 μA
- Mean benzamil-sensitive Isc ([1]; passage 44-51, 5 μM benzamil, n=15): 1.7 μA
- Mean benzamil-sensitive Isc ([2]; passage 4, 5 μM benzamil, n=12): 0.5 μA

Compound: COc1ccc2c(c1)c(CC(=O)O)c(C)n2C(=O)c1ccc(Cl)cc1 [indomethecin]
- Mean indomethecin-sensitive Isc ([1]; passage 19, 10 μM indomethecin, n=15): 5.0 μA
- Mean indomethecin-sensitive Isc ([1]; passage 44-51, 10 μM indomethecin, n=14): 0.6 μA
- Mean indomethecin-sensitive Isc ([2]; passage 4, 10 μM indomethecin, n=12): 3.4 μA
